Experiments:
[1] = biological target: T1, receptor tyrosine kinase DDR1 (Homo sapiens, UniProt Q08345); assay: kinobeads competition binding assay in K562 cell lysate (iTRAQ mass spectrometry, Western blot); conditions: at 1 µM
T1 construct: endogenous in cells; host or cells: K562 cells / K562 cell lysate
Description: From this dataset, dose-response binding profiles were computed.
All experiments were performed in duplicate.

[2] = biological target: FAK (Homo sapiens, UniProt Q05397); conditions: phage display studies, Fabian et al., 2005; cited from earlier work
FAK, sequence (Q05397 whole entry, species assumed): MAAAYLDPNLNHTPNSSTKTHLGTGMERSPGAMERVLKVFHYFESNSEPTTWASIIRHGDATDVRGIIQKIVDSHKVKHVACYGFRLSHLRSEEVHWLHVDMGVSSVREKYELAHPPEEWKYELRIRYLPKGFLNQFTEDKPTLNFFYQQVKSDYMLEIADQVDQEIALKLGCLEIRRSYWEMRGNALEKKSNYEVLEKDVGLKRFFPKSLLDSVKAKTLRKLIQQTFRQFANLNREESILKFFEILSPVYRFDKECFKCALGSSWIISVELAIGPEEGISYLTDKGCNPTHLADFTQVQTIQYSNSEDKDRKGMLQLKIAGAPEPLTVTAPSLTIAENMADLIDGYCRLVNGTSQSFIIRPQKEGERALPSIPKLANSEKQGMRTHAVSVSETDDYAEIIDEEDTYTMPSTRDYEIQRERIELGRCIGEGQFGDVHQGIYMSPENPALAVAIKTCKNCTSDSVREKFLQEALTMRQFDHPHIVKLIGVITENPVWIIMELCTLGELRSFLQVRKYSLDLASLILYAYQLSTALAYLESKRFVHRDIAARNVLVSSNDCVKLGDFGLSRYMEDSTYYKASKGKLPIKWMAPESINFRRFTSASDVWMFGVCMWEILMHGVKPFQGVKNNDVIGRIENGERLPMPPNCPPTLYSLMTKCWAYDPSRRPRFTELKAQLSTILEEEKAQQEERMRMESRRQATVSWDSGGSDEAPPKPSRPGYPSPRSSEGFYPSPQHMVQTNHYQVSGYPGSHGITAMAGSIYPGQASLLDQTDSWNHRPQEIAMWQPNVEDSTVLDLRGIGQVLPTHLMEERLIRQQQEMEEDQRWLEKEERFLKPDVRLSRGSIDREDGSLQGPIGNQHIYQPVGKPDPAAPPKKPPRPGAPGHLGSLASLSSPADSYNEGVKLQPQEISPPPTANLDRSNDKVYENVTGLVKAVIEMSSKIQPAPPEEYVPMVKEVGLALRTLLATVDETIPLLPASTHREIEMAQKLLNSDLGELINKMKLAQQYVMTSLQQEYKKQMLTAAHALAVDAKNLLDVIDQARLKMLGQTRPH

T1 sequence (Q08345 19-913): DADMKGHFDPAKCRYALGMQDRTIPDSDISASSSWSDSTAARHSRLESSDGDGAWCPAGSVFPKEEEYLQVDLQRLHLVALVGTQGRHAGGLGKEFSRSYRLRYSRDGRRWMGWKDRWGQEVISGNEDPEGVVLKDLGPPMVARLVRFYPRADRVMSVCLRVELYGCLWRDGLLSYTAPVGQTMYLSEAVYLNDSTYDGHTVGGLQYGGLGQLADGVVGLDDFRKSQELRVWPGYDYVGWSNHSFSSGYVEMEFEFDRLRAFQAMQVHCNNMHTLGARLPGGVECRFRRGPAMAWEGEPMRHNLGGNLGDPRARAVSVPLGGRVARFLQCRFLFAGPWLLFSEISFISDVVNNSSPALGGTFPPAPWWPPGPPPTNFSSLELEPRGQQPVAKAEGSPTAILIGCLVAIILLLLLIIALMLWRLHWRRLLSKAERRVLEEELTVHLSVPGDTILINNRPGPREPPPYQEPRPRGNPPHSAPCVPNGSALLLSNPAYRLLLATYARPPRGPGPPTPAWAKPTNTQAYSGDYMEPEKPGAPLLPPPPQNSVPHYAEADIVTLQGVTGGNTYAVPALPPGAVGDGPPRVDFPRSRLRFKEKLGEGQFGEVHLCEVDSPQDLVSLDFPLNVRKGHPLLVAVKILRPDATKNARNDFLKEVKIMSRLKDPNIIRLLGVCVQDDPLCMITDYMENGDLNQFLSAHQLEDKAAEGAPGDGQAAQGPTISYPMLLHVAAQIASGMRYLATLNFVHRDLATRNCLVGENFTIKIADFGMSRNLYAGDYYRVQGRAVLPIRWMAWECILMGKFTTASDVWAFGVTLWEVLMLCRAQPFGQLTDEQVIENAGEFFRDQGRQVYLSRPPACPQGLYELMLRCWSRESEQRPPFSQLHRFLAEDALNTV

| competition [1] | SMILES | binding to FAK [2] |
| --- | --- | --- |
| > 50% | COc1cc(Nc2c(C#N)cnc3cc(OCCCN4CCN(C)CC4)c(OC)cc23)c(Cl)cc1Cl [bosutinib] |  |
|  | Cc1ccc(NC(=O)c2ccc(CN3CCN(C)CC3)cc2)cc1Nc1nccc(-c2cccnc2)n1 [imatinib, 4-(4-methylpiperazin-1-ylmethyl)-N-[4-methyl-3-(4-pyridin-3-yl)pyrimidin-2-ylamino)phenylbenzamide] | no binding |

Reference: patent publication EP1992347A1 (CELLZOME AG, priority 2007, dated 2008)
